Data reported in a melting point compilation (Tetko et al.; mined from patent text by program, amines drawn as free bases though some values may be those of a salt).

melting point	Structure (SMILES)
201 to 203 °C	N#Cc1ccccc1Oc1ccc(-c2cn(C3CCOC3)c3ncnc(N)c23)cc1 (centres undefined)
235 to 237 °C	Cc1cc2c(cc1C)SC(C(F)(F)F)C(C(=O)O)=C2 (centres undefined)
164 to 168 °C	CCCCc1nc(Cl)c(CO)n1Cc1ccc2oc(-c3ccccc3C#N)c(OC)c2c1
92 to 93 °C	Clc1ccc(Oc2cncc(Cl)n2)cc1
117 to 120 °C	CCOC(=O)c1ccsc1NC(=O)NCCN1CCN(c2ccccc2)CC1
98 to 99 °C	Cc1ccc(-c2nc(Cc3cccc(C=O)c3)c(C)o2)cc1
128 to 130 °C	CC(=O)N(C(=O)N(C)C)c1snc(C(C)C)c1C#N
97 to 98 °C	COc1cc(C(O)Cc2ccccc2)ccc1OCc1ccccc1 (centres undefined)
106 to 107 °C	CC(=O)Nc1ccc(OCCO[N+](=O)[O-])cc1
104 to 107 °C	CN(C)C(=S)C(O)c1ccc(OCc2ccccc2)cc1 (centres undefined)
140 to 142 °C	CC1Cc2cccc(-c3ccccc3)c2C(=O)O1 (centres undefined)
131 to 133 °C	O=C(O)c1cc(OCCCCCCOc2ccc(-c3ccccc3)cc2)ccc1OCc1ccccc1
184 °C	COC(=O)c1ccccc1S(=O)(=O)NC(=O)n1nc(SC)n(C)c1=O
214 to 216 °C	CC(=O)Oc1ccccc1[C@@H]1SC(C)(C)[C@H](C(=O)O)N1C(C)=O
199 to 201 °C	N#CC1(N2CCC(n3c(=O)[nH]c4ccccc43)CC2)CCCCC1
107 to 108 °C	O=C(CCCN1CCC(c2ccccc2)(c2ccccc2)CC1)c1ccc(F)cc1
169 to 172 °C	CCOC(=O)c1cncc(-c2cnc3c(c2)N(Cc2cc(F)ccc2F)CCN3)c1
222 to 224 °C	Fc1ccc(Nc2ncnc3cnc(N4CCC(N5CCOCC5)CC4)nc23)cc1Cl
212 to 213 °C	COc1ccccc1Cc1nc2n(c1Cc1ccccc1OC)CCS2
117 to 118 °C	CCC(=O)c1cc(C)nc2c1c(C)nn2-c1c(C)cc(C)cc1C
223 to 224 °C	CC(C)(C)c1nnc(N)n(N)c1=O
148 to 153 °C	Cc1ccc2c(NCc3ccccc3)c3c(nc2c1)CCCC3O (centres undefined)
76 to 77 °C	CC(=O)c1c(-c2ccccc2)n(C)c2ccccc12
58 to 59 °C	COC(=O)C=Cc1ccc(OCCCCl)cc1

melting point	Structure (SMILES)
152 to 154 °C	COc1ccc(NS(=O)(=O)N2CCn3c(c(C(N)=O)c(Cl)c3-c3ccccc3)C2)cc1
161 to 162 °C	CC(C)(C)OC(=O)N1CCC[C@H]1CNc1ccc2nccn2n1
104 °C	COc1ccc(C2COc3cc(OC(C)=O)c(OC(C)=O)cc3C2)cc1 (centres undefined)
196 to 199 °C	O=C1CC(C(=O)NC(Cc2c[nH]cn2)C(=O)OCc2ccccc2)N1 (centres undefined)
106 to 108 °C	CCCCCCc1ccc(C(=O)O)cc1[N+](=O)[O-]
220 to 223 °C	O=C1c2ccccc2C(=O)N1CC(=O)N1c2ccccc2N(Cc2cccnc2)C(=O)[C@H]2CCC[C@H]21 (relative stereo)
87 to 91 °C	COC(=O)Cc1nc(-c2ccccc2)c(-c2ccccc2)o1
245 to 247 °C	COc1ccc(CNc2nc3ccccc3c3[nH]c(C4CCCC4)nc23)cc1
177 to 179 °C	O=C(O)C(CCCN1C(=O)c2ccccc2S1(=O)=O)NS(=O)(=O)c1ccc(-c2ccc(Cl)cc2)cc1 (centres undefined)
179 to 181 °C	CCc1cc2cc(CC(=O)O)c(Cl)c(Cl)c2s1
61 to 63 °C	CCOC(=O)CNc1ccc(OCC(=O)OCC)c(NC(=O)c2ccc(OCCCCc3ccccc3)cc2)c1
109 to 110 °C	CN(CCNC(=O)Cc1ccc(OCc2ccc(-c3ccccc3)cc2)cc1)C(=O)OC(C)(C)C
123 to 129 °C	Ic1nnnn1-c1ccccc1
> 67 °C	CCCCN(Cc1ccc(-c2ccccc2S(=O)(=O)NC(=O)OC(C)(C)C)cc1)C(=O)N1CCCc2ccccc21
192 to 194 °C	Cc1cc(C)nc(NC(=O)NS(=O)(=O)c2cc(Cl)sc2Cl)n1
178 to 179 °C	Cc1nc(-n2cnn(Cc3ccc(F)cc3)c2=O)sc1C(=O)NCc1cccnc1
152 to 155 °C	CCOC(=O)CNC(=O)c1nnc2ccc(NCCCN3CCC(OC(c4ccccc4)c4ccccc4)CC3)nn12
55 to 60 °C	O=C(NCc1ccccc1)c1ccnc(N2CCC(c3ccccc3)CC2=O)c1 (centres undefined)
81 to 83 °C	CC(=O)C(=CN(C)C)C(=O)c1ccccc1
124 to 125 °C	CN(C)C=Nc1nc(OS(=O)(=O)c2ccccc2)ncc1F
154 to 156 °C	COc1ccc(P(=O)(c2ccccc2)c2ccccc2)cc1OC
54 to 55 °C	CCC(=NOCc1ccc(Cl)cc1)c1cc(Cl)ccc1NS(=O)(=O)C(F)(F)F
156 to 158 °C	CC[C@H](C1CC1)n1cc(Cl)nc(N2CCc3cc(OC)cc(C)c32)c1=O
149 °C	CCOC(=O)c1nccc2c(C)c3c(cc12)c1cc(OC)ccc1n3CC

melting point	Structure (SMILES)
225 to 226 °C	CCCn1c(N)c(N=O)c(=O)n(CC2CCCCC2)c1=O
331 to 332 °C	CCOC(=O)c1cnn2c1nc(N)c1cnc3c(cnn3CC)c12
131 to 132 °C	N#Cc1c(Br)c(C(F)(F)F)n(CBr)c1-c1ccc(Cl)cc1
134 to 136 °C	CN(C)c1ccc(C(=O)C#Cc2cccc(OCc3ccccc3)c2)cc1
268 to 271 °C	NCCCP(=O)(O)CC(O)CN1C(=O)c2ccccc2C1=O (centres undefined)
156 to 158 °C	Cc1c(CCN(C(=O)C(F)(F)F)c2cc3ccccc3n2C)ncn1S(=O)(=O)N(C)C
144 to 145 °C	COC(=O)C(Cc1ccc(OC)c(C(=O)NCc2ccc(C(F)(F)F)cc2)c1)S(C)(=O)=O (centres undefined)
230 to 233 °C	CCOc1ncc(C(C)=O)cc1C(=O)Nc1c(C(N)=O)nn(C2CN(CC)C2)c1CC
125 °C	CC(C)(Oc1ccc(Oc2ccc(OC(C)(C)C(=O)O)cc2)cc1)C(=O)O
222 °C	C=CCOC1=NC2OC(C(=O)c3ccc(Cl)cc3Cl)=C(NC(N)=O)C2C=C1 (centres undefined)
166 to 167 °C	N#Cc1cc(Cn2cncn2)cc(-c2ccc(OS(N)(=O)=O)cc2)c1
182 °C	Nc1ccc(Nc2c(NCc3ccco3)cc(C(=O)O)cc2S(=O)(=O)Nc2ccccc2N)cc1
80 to 83 °C	C[C@@H]1OC(=O)N(C(=O)O)[C@H]1c1ccc(F)c(F)c1 (relative stereo)
92 to 98 °C	CC(O)C1C(=O)N2C(C(=O)OCc3ccc([N+](=O)[O-])cc3)C(=O)CC12 (mixture of isomers)
104 to 107 °C	CC(C)(C)C(O)C(CC1CCCCC1)n1cncn1 (centres undefined)
206 to 207 °C	O=C(O)c1cn(C2CCCC2)c2c(F)c(F)c(F)cc2c1=O
144 °C	CN(C)c1ccc2c(c1)SC1=NCCN12
87 to 90 °C	CCCN1CCC(c2c[nH]c3ccc(NS(C)(=O)=O)cc23)CC1
198 to 200 °C	Cn1c2c(c3ccccc3c1=O)C(=O)c1cc(OCc3ccccc3)c(OCc3ccccc3)cc1-2
280 to 290 °C	Cc1c(-c2cccnc2)sc2nc(N)[nH]c(=O)c12
96 to 98 °C	Cc1ccc(S(=O)(=O)NC(=O)C(C)(NC(=O)NN(C)C)C(C)C)cc1 (centres undefined)
134 to 138 °C	CCN(CC)CC(=O)OC1CC2(C)C(C(C)=O)CCC2C2CCC3CC(O)C=CC3(C)C12 (centres undefined)
153 °C	CC(C)(C)[Si](OCCOc1ccc(/C=C/C(=O)O)c(Oc2ncc(C(F)(F)F)cc2Cl)c1)(c1ccccc1)c1ccccc1
116 to 117 °C	C[C@@H](Cn1ncc2ccc3c(c21)O[C@@H](CO)CO3)NC(=O)OCc1ccccc1

melting point	Structure (SMILES)
134 °C	CC(=O)c1cn(-c2c(Cl)cc(C(F)(F)F)cc2Cl)nc1C(F)(F)F
151 to 153 °C	CCOc1ccc(CN2C(=O)SC(CCCC#Cc3ccc(Cl)cc3)(S(=O)(=O)c3ccc(C)cc3)C2=O)c(OCC)c1 (centres undefined)
144 °C	CC(=O)OCc1csc(=S)n1CCC(=O)O
234 to 235 °C	Cc1noc(NC(=O)N2CCN(c3ccnc(-c4ccc(F)cc4F)c3)CC2)c1C
122 to 123 °C	O=C(Oc1ccc(F)cc1)Oc1ccc(F)cc1
86 to 88 °C	CNC(=O)OCc1c(COC(=O)NC)c2n(c1C)-c1ccccc1C2
83 to 85 °C	COc1cccc(CCNC(=O)N(C)O)c1OC
179 °C	CC(OCc1cc2nc(Cl)ccc2n1S(=O)(=O)c1ccc2ncsc2c1)C(=O)O (centres undefined)
128 to 130 °C	Cn1ncc2c1-c1ccc(Cl)cc1C(c1ccccc1F)=NC2
160 to 170 °C	CCOC(=O)c1ccc(N=C(Nc2ccc(C(=O)OCC)cc2)c2cccc(Cl)c2)cc1
137 to 139 °C	CCNC(=O)c1c([Si](C)(C)C)ccc(SC)c1Cl
170 °C	CCCCOc1ccc(-c2ncc(C#N)c(Cl)n2)cc1
128 to 129 °C	Fc1cccc(CSc2nnc(-c3ccc4c(c3)CCO4)o2)c1
157 to 159 °C	CCN(CC)Cc1cc(NC(C)=O)c2c(c1O)CCCC2
81.5 to 84.5 °C	C=COCCn1cccc1-c1nc(-c2ccc(OC)cc2)c(-c2ccc(OC)cc2)s1
230 to 235 °C	COC(=O)NC1CCC(Nc2ncc3ncnc(Nc4ccc(F)c(Cl)c4)c3n2)CC1 (centres undefined)
155 to 156 °C	Cc1cccc2c1nc(-c1c(F)cccc1F)n2Cc1c(F)c(F)c(F)c(F)c1F
124 to 126 °C	COc1cccc(C(C[N+](=O)[O-])SC(=S)N(C)C)c1OC(C)=O (centres undefined)
187 to 190 °C	CCCCOc1ccc2c(=O)c(-c3nnnn3C)cn(C)c2c1
298 to 301 °C	CC(C)CNC1=NS(=O)(=O)c2ccc(Cl)cc2N1
130 °C	CCCc1ncc(CN2CCN(c3ccccc3OC)CC2)c(N)n1
175 to 176 °C	CC(=O)Nc1nc2ccc(O)cc2n1S(=O)(=O)N(C)C
139 to 140 °C	CCOC(=O)c1cccc(C=C(C(=O)O)c2ccccc2)c1

Structure (SMILES)	melting point
Nc1nc(Cl)c(Cl)nc1[N+](=O)[O-]	169 to 170 °C
COCc1noc(-c2ncn3c2CN(C)C(=O)c2c(Cl)cccc2-3)n1	213 to 215 °C
CN1CCC(O)(c2cc(F)cc(Cl)c2)C1 (centres undefined)	117 to 118 °C
N#Cc1cc(C(=O)CCl)cs1	94 to 98 °C
